System: Influenza A N1H1
Assay: In vivo antiviral efficacy in Balb/c mice, lung virus titer by TCID50 assay
Details: methylene blue replaced by riboflavin; prophylactic and therapeutic application
Protocol: Mice received a daily MB-dose of 5 mg/kg based on a daily drinking volume of ˜5-6 ml and a body weight of 25-35 g. The control group received drinking water with saccharin but without methylene blue.
Mice were euthanized and lungs were removed on day 3 post challenge with influenza H1N1 virus. These tissue samples were stored at <−60° C. until they were transferred into homogenization tubes containing 1 ml cell medium supplemented with antibiotics. The lungs were homogenized two times at 5000 rpm for twenty seconds with 10 seconds pause between the intervals with a tissue homogenizer. The infectious H1N1 virus titer in homogenized lung samples was determined by a TCID50 assay performed by titration on Madin-Darby Canine Kidney (MDCK) cells as described above.

Cc1cc2nc3c(=O)[nH]c(=O)nc-3n(C[C@H](O)[C@H](O)[C@H](O)CO)c2cc1C [riboflavin, 7,8-dimethyl-10-[(2S,3S,4R)-2,3,4,5-tetrahydroxypentyl]benzo[g]pteridine-2,4-dione]
viricidal efficacy, lung virus titer (TCID50 assay), expected: Analogous results are expected

— patent publication US20230226072A1 (priority 2020, published 2023)
